# From ChEMBL document CHEMBL5058564, “EUbOPEN Chemogenomics Library 2 (Incucyte)” (2022)
# What was measured:
# Type in all cases: toxicity, cell-based
# [1] = tested on: U2OS; assay: Incucyte cell viability with U2OS; details: human, 10 µM, compound concentration 10 uM
# [2] = tested on: Fibroblast; assay: Incucyte cell viability with human fibroblast; details: 10 µM, compound concentration 10 uM
# [3] = tested on: HEK-293T; assay: Incucyte cell viability with HEK293T; details: human, 10 µM, compound concentration 10 uM
# [4] = 0 h, replicate number 2, timepoint 0 hours
# [5] = 6 h, replicate number 1, timepoint 6 hours
# [6] = 6 h, replicate number 2, timepoint 6 hours
# [7] = 18 h, replicate number 1, timepoint 18 hours
# [8] = 0 h, replicate number 1, timepoint 0 hours
# [9] = 12 h, replicate number 2, timepoint 12 hours
# [10] = 18 h, replicate number 2, timepoint 18 hours
# [11] = 24 h, replicate number 1, timepoint 24 hours
# [12] = 24 h, replicate number 2, timepoint 24 hours
# [13] = 12 h, replicate number 1, timepoint 12 hours
# Further: unitless GR value; below 1 slowed growth and below 0 cell loss.
SMILES,"Growth Rate [1, 4]","Growth Rate [1, 5]","Growth Rate [1, 6]","Growth Rate [1, 7]","Growth Rate [2, 8]","Growth Rate [2, 5]","Growth Rate [2, 6]","Growth Rate [2, 11]","Growth Rate [3, 8]","Growth Rate [3, 4]","Growth Rate [3, 5]","Growth Rate [3, 13]","Growth Rate [3, 9]","Growth Rate [3, 7]","Growth Rate [3, 10]","Growth Rate [3, 11]","Growth Rate [3, 12]","Growth Rate [1, 8]","Growth Rate [2, 4]","Growth Rate [2, 13]",further results
Cl.Clc1cccc(Cl)c1NC1=NCCN1 [CLONIDINE HYDROCHLORIDE],0.55,0.87,0.91,1,0.82,0.94,0.45,0.9,0.99,0.43,0.49,0.74,0.54,0.59,0.58,0.85,0.63,,,,"Growth Rate [2, 9]: 0.46; Growth Rate [2, 10]: 0.62; Growth Rate [2, 12]: 0.47"
O=C(O)CCC/C=C\CC1C(O)CC(O)C1/C=C/C(O)COc1cccc(Cl)c1 (configuration not stated) [CLOPROSTENOL],-0.99,,0.74,0.7,,-0.06,,0.18,,0.63,0.34,0.74,,0.75,0.99,0.95,,-0.27,0.34,0.25,"Growth Rate [2, 7]: 0.2; Growth Rate [3, 6]: 0.93"
C[C@H]1[C@H]2CC[C@H]3[C@@H]4CC=C5C[C@@H](N(C)C)CC[C@]5(C)[C@H]4CC[C@]23CN1C [CONESSINE],,,0.8,,,0.11,,0.52,,0.74,0.67,0.85,,0.82,,0.91,,,0.49,0.18,"Growth Rate [1, 9]: 0.89; Growth Rate [2, 7]: 0.35"
CC1(COc2ccc3c(c2)ncn3-c2ccc3cccc(N4CCC(N)CC4)c3n2)COC1 [CRENOLANIB],,,,0.87,-0.8,,,,-0.26,-0.11,-0.46,-0.32,-0.23,-0.28,-0.21,-0.22,-0.19,,-0.75,,"Growth Rate [1, 10]: 0.92; Growth Rate [1, 11]: 0.54; Growth Rate [1, 12]: 0.8; Growth Rate [3, 6]: -0.5"
CC(C)C[C@@H](NC(=O)[C@H](Cc1ccccc1)NC(=O)CNC(=O)[C@@H](C)NC(=O)[C@@H](N)Cc1ccc(O)cc1)C(=O)O [DADLE],0.25,,0.82,,0.72,,,,0.71,0.5,0.4,0.61,,0.72,1,0.8,0.91,,-0.04,0.89,"Growth Rate [1, 9]: 0.93; Growth Rate [1, 10]: 0.98; Growth Rate [1, 12]: 0.99"
Cc1ccccc1N1CCN(CCc2nnc3n2CCCC3)CC1.Cl [DAPIPRAZOLE HYDROCHLORIDE],,0.94,,,-0.42,,0.85,0.68,,-0.18,0.83,,,0.93,,0.96,,0.33,0.16,0.81,"Growth Rate [1, 13]: 0.78"
